Reference: patent US9034387B2, “Intrinsically fluorescent carbon nanospheres and a process thereof” (priority 2007, dated 2015)

Tested on: acetylated histone H3 in HeLa cells
Test: Immunofluorescence analysis using acetylated H3 antibody
Assay type: cell-based
Details: CTPB alone at 300 μM, compared with untreated cells
Source text: FIG. 3. Small molecule HAT activator binds to the CSP and induces hyperacetylation within HeLa cells. (a) X-ray crystal structure of CTPB showing the ball and stick model view of the compound. The color coding of the atoms is as follows: light blue, carbon; white, hydrogen; red, oxygen; grey, fluorine; green, chlorine; dark blue, nitrogen. (b) SEM image of the carbon spheres, adsorbed with CTPB (Panel I). A specific area of the sample was excited with the electron beam of energy suitable for the constituent elements to emit the X-rays of their characteristic wavelength. […] (c)-(d) Top panel represents the confocal image of HeLa cells, Bottom panel represents intensity profile of the image arising from Hoechst stained nuclei shown as blue peak, Fluorescence intensity of CSP is shown as light green peak, Fluorescence intensity from Alexa 488 fluor antibody is shown as dark green peak. HeLa cells, (3c, I) untreated, stained with Hoechst dye; (3c, II) treated with CSP, where carbon sphere fluorescence always overlap with the nuclear region, showing that the nanosphere localized within the nucleus specifically; (3c, III) untreated, probed with antibody against acetylated histone H3; (3c, IV) treated with HAT activator CTPB (300 μM), probed with antibody against acetylated histone H3. […]

## CCOc1ccccc1C(=O)Nc1ccc(Cl)c(C(F)(F)F)c1 [CTPB, 4-chloro-3-trifluoromethylphenyl-2-ethoxybenzamide]
  acetylation level (acetylated H3 immunofluorescence), result in words: did not show any difference
